In the experiment the target is T1, Complement C1s subcomponent (Homo sapiens, UniProt P09871).
T1 sequence (P09871 whole entry): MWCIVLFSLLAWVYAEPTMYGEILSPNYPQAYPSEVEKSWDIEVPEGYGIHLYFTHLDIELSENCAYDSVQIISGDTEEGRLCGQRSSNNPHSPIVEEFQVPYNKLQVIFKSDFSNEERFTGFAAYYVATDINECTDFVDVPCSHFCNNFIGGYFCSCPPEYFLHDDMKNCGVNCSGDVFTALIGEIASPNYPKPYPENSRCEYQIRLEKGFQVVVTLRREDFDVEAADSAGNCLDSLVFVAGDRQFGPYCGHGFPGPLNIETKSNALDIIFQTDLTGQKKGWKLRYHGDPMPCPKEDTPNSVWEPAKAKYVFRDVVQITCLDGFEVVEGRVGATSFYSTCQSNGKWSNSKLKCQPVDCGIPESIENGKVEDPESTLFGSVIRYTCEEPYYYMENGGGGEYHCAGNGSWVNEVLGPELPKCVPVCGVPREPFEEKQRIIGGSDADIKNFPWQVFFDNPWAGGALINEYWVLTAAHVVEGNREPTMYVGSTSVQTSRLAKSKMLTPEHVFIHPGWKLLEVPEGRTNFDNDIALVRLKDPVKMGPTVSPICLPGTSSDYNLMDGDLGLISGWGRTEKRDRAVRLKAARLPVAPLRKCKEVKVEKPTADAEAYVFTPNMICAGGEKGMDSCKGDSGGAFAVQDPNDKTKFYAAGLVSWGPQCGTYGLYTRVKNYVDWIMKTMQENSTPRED
Nature of the experiment: Human C1s Enzyme Assay. The protocol:
Human complement C1s enzyme (purified from human serum, Complement Technology, Inc.) at 1.16 nM final concentration was incubated with test compound at various concentrations for 5 min at room temperature in 50 mM Tris, 1 M NaCl, pH 7.5. A synthetic substrate Z-L-Lys-SBzl and DTNB (Ellman's reagent) were added to final concentrations of 100 μM each. Absorbance at 405 nm (A405) was recorded at 30 second intervals for 30 min using a microplate spectrophotometer. IC50 values were calculated by nonlinear regression of complement C1s reaction rates as a function of test compound concentration.
The term IC50 denotes the concentration needed to halve the response being measured. Molecule `N=C(N)c1cc(CNC(=O)[C@@H]2CC3(CN2C(=O)CNC(=O)c2ccc(-c4ccccc4)cn2)OCCO3)cs1` [US20250346585, Compound 144] had a 50% inhibitory concentration (IC50) of under 100 nM. Next, `O=C(NCC(=O)N1CC2(C[C@H]1C(=O)NCc1cc(N3CCCC3=O)cs1)OCCO2)c1ccc(Oc2ccc(F)cc2)cc1` [US20250346585, Compound 290]: over 1000 nM; `CC(=O)NCCNC[C@@]12C[C@@H]1N(C(=O)CNC(=O)c1ccc3c(c1)-c1ccccc1C3(F)F)[C@H](C(=O)N[C@H](C)c1cc(C(=N)N)cs1)C2` [US20250346585, Compound 315]: under 100 nM.

On to `C[C@@H](NC(=O)[C@@H]1C[C@@H](S(C)(=O)=O)CN1C(=O)CNC(=O)c1ccc2sc3ccccc3c2c1)c1cc(C(=N)N)cs1` [US20250346585, Compound 332], for which the IC50 was under 100 nM. Turning to `C[C@@H](NC(=O)[C@H]1C[C@]2(CC(F)(F)F)C[C@@H]2N1C(=O)CNC(=O)c1ccc2c(c1)-c1ccccc1C2(F)F)c1cc(C(=N)N)cs1` [US20250346585, Compound 410], the half-inhibitory concentration (IC50) was over 1000 nM. Next, `C[C@@H](NC(=O)[C@@H]1C[C@]2(CC(F)(F)F)C[C@@H]2N1C(=O)CNC(=O)c1ccc2c(c1)-c1ccccc1C2(F)F)c1cc(C(=N)N)cs1` [US20250346585, Compound 411]: over 1000 nM.

For the origin of these results see BindingDB's records for patent US20250346585 (Alexion Pharmaceuticals, 2025).
